For experiment [1], the target named is T1, human 11β-HSD1 enzyme (Homo sapiens, UniProt P28845).
T1 construct: stably transfected with a construct containing the full-length gene coding for the human 11β-HSD1 enzyme; expressed in transfected cells; HEK293/11β-HSD1)
In words: Cellular in vitro 11β-HSD1 enzyme inhibition assay (SPA, HEK293/11β-HSD1 cells). It is filed as cell-based. The following applies: HEK293 cells stably transfected with human 11β-HSD1; 22 nM tritiated cortisone, 2 hours. Here is the method: Cellular In Vitro 11β-HSD1 Enzyme Inhibition Assay
Compounds were assessed by a Scintillation Proximity Assay (SPA) performed according to the following protocol:
HEK293 cells were stably transfected with a construct containing the full-length gene coding for the human 11β-HSD1 enzyme to create HEK293/11β-HSD1 cells. Cells were routinely cultured in DMEM containing 10% calf foetal serum, 1% glutamine, and 1% penicillin and streptomycin. Prior to assay, cells were plated at 2×10^4 cells/well in 96-well poly-D-Lys coated flat-bottomed microplates and incubated in 5% CO2, 95% O2 at 37° C. for 24 hours. The media in each well was removed immediately before assay.
Compounds to be tested were dissolved in DMSO at 10 mM and serially diluted into water containing 10% DMSO. Diluted compounds at a volume of 10 μL were added to wells of a 96-well V-bottomed microplate. A solution of DMEM, 1% glutamine, 1% penicillin and streptomycin, and 22 nM tritiated cortisone was prepared and 90 μL added to each well of the assay plate. This solution (100 μL/well) was transferred to the plate containing the cells. The plate was then incubated in 5% CO2, 95% O2 at 37° C. for 2 hours.
Following this incubation, 50 μL of the assay solution was transferred to each well of a 96-well scintillation microplate. A mixture consisting of anti-mouse YSi SPA beads, pre-mixed with anti-cortisol antibody in assay buffer (50 mM Tris.HCl, pH 7.0; 300 mM NaCl; 1 mM EDTA, 5% glycerol) was prepared and 50 μL added to each well of the scintillation microplate. An adhesive strip was applied to the microplate and the plate gently shaken for at least 2 hours at room temperature, and then spun briefly on a low speed centrifuge. The plate was read on a scintillation counter suitable for 96-well microplates. For the calculation of percentage inhibition, a series of wells were added to the plate that represented the assay maximum and the assay minimum: one set that contained substrate without cells (minimum) and another set that contained substrate and cells without any compound (maximum).
The calculation of median inhibitory concentration (IC50) values for the compounds was performed using GraphPad Prism® software. Dose-response curves for each compound were plotted as fractional inhibition and data fitted to the four parameter logistic equation.

In experiment [2] the target is T2, human 11β-HSD2 (Homo sapiens, UniProt P80365).
T2 construct: CHO cells stably transfected with the full-length gene coding for human 11β-HSD2 were used; expressed in transfected cells
T2 sequence (P80365 1-405): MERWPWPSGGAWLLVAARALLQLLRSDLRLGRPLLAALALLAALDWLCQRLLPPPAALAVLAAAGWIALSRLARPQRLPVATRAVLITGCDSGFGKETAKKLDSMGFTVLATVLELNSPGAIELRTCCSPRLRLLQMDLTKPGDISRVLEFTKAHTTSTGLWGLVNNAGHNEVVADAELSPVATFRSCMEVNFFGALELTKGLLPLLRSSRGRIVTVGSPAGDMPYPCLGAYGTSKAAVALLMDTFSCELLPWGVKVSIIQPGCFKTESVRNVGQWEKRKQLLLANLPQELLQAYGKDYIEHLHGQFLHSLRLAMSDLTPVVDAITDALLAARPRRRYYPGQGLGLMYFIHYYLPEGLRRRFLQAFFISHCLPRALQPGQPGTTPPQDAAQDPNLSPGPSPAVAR
In words: Cellular in vitro 11β-HSD2 enzyme inhibition assay (CHO cells, TLC/phosphoimager). To be noted: CHO cells stably transfected with human 11β-HSD2; 22 nM tritiated cortisol, 16 hours. Type of experiment: cell-based. How it is done:
Cellular In Vitro 11β-HSD2 Enzyme Inhibition Assay
For measurement of inhibition of 11β-HSD2, CHO cells stably transfected with the full-length gene coding for human 11β-HSD2 were used. Assays were carried out in 96-well microplates containing 1×10^5 cells/well. Controls and compounds were plated as above, so that the final DMSO concentration in each well was 1%. To initiate the assay, 90 μL of a solution of HAMS F-12 medium containing 1% glutamine, 1% penicillin and streptomycin, and 22 nM tritiated cortisol was added to each well of the assay plate. The plate was then incubated in 5% CO2, 95% O2 at 37° C. for 16 hours.
The assay solutions were transferred to glass tubes and 20 μL ethyl acetate added to each tube. Each tube was vortexed thoroughly and the upper layer containing the tritiated steroid transferred to a fresh glass tube. The solvent was evaporated by placing the tubes in a heating block at 65° C. under a stream of Nitrogen gas. 20 μL ethanol was added to each of the dried samples and vortexed briefly. Each sample was applied to a silica TLC plate and the plate dried. The plate was placed vertically in a glass tank containing 92% chloroform:8% ethanol and the solvent allowed to rise up the plate. The plate was dried, placed in an imaging cassette, and overlayed with a tritium imaging plate for 1-2 days. The amount of enzyme inhibition in each sample was determined by measuring the intensity of the substrate and product spots using a phosphoimager.
IC50 values for inhibitors were determined as described for 11β-HSD1.

This is an account of results in US20120095046A1, “Amido-Isothiazole Compounds and Their Use as Inhibitors of 11Beta-HSD1 for the Treatment of Metabolic Syndrome and Related Disorders” (THE UNIVERSITY OF EDINBURGH, priority 2009, published 2012).

T1 sequence (P28845 whole entry): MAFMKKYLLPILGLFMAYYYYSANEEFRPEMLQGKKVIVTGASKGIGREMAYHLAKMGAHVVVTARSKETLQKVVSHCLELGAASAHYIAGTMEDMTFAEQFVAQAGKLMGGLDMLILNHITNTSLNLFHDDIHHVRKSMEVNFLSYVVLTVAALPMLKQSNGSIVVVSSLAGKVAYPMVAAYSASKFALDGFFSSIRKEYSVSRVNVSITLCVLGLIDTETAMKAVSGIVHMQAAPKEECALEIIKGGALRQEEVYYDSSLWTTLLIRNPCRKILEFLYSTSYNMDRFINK

Consider `O=C1c2ccccc2C(=O)N1c1cc(C(=O)N2CCC[C@@H]3CCCC[C@@H]32)ns1` [BB-03, 2-[3-((4aS,8aS)-Octahydro-quinoline-1-carbonyl)-isothiazol-5-yl]-isoindole-1,3-dione], for which the half-maximal inhibitory concentration (IC50) (commonly the concentration needed to halve the response being measured) in experiment [1] was at most 500 nM; in experiment [2] it was above 10000 nM.

With `O=C(c1cc(-c2ccccc2)sn1)N1CCCC2CCCCC21` (stereo not drawn) [AA-02, (Octahydro-quinolin-1-yl)-(5-phenyl-isothiazol-3-yl)-methanone], the IC50 in experiment [1] is at most 500 nM; in experiment [2] it was above 10000 nM.

On to `O=C(c1cc(-c2cn[nH]c2)sn1)N1CCCC1c1ccc(F)cc1` (stereo not drawn) [BB-02, [2-(4-Fluoro-phenyl)-pyrrolidin-1-yl]-[5-(1H-pyrazol-4-yl)-isothiazol-3-yl]-methanone], for which the half-inhibitory concentration (IC50) in experiment [1] is at most 500 nM; in experiment [2], above 10000 nM.

For `O=C(c1cnsc1-c1ccccc1)N1CCCC2CCCCC21` (stereo not drawn) [AA-01, (Octahydro-quinolin-1-yl)-(5-phenyl-isothiazol-4-yl)-methanone], the IC50 is 59 nM in experiment [1] and above 10000 nM in experiment [2].

Consider `O=C(c1cc(C2CCOCC2)sn1)N1CCC[C@@H]2CCCC[C@@H]21` [CC-01, (4aS,8aS)-Octahydro-quinolin-1-yl-[5-(tetrahydro-pyran-4-yl)-isothiazol-3-yl]-methanone], for which the 50% inhibitory concentration (IC50) was 62 nM in experiment [1] and above 10000 nM in experiment [2].

For the molecule `O=C(c1cc(-c2cn[nH]c2)sn1)N1CCC[C@@H]2CCCC[C@@H]21` [BB-01, (4aS,8aS)-Octahydro-quinolin-1-yl-[5-(1H-pyrazol-4-yl)-isothiazol-3-yl]-methanone], the half-inhibitory concentration (IC50) in experiment [1] is 18 nM; in experiment [2] it was above 10000 nM.
